Measured values: PubChem BioAssay AID179 (DTP/NCI, 2004)
Active and inactive are the calls of the source.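 Rule for the calls: active = compounds giving half or more protection of infected cells from virus-caused growth loss, again on retest; inactive = the rest.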

Test system: CEM cells HIV-1 protection, formazan growth assay
Experiment: NCI AIDS Antiviral Assay
Settings: for IC50: measured here: growth of uninfected CEM cells
In short: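 Human CEM cells, uninfected and HIV-1-infected, received five drug concentrations, and growth was read by soluble formazan assay. Compounds giving at least 50% protection were retested; reproducible 100% protection defined confirmed active.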

With `COc1ccc(Nc2nc3c([nH]2)c(=O)n(C)c(=O)n3C)cc1` the EC50 was > 200 µM and the IC50 was > 200 µM.
For `COc1cc2oc(=O)cc(C)c2cc1OC`, the EC50 was > 200 µM and the IC50 was > 200 µM.
In the case of `COC1(CC[C@H](C)COC2OC(CO)C(O)C(O)C2O)O[C@H]2C[C@H]3[C@@H]4CC=C5C[C@@H](OC6OC(CO)C(OC7OC(C)C(O)C(O)C7O)C(O)C6OC6OC(C)C(O)C(O)C6O)CC[C@]5(C)[C@H]4CC[C@]3(C)[C@H]2[C@@H]1C` (some centres undefined), the EC50 is reported as > 200 µM and the IC50 is reported as 1.58 µM.
`CCc1c(O)n(Cc2nc3ccccc3[nH]2)c(=S)n(-c2ccccc2)c1=O` was tested, and the EC50 was > 200 µM and the IC50 was > 200 µM.
`N#CCN1CCCCCc2ccccc21` was tested, and the EC50 was > 200 µM and the IC50 was > 200 µM.
With `N#C/C(=C\c1ccc(O)c(O)c1)C(=O)NCCc1ccc(O)c(O)c1` the EC50 was > 200 µM and the IC50 was 30.9 µM.
For `CCCNCCCC(NC(C)=O)C(=O)NCc1ccccc1` (centres undefined), the EC50 was > 813 µM and the IC50 was > 813 µM.
With `COc1c(O)cc2oc(-c3ccc(O)c(O)c3)cc(=O)c2c1O` the EC50 was > 38 µM and the IC50 was 22.9 µM.
In the case of `C/C=C1/CC(C(=O)OC)N(C(=O)OCc2ccccc2)C1=S` (centres undefined), the EC50 is reported as > 200 µM and the IC50 is reported as > 200 µM.
With `CN(CCN(C)C(=S)NN)C(=S)NN` the EC50 was > 200 µM and the IC50 was 132 µM.
For `CC(=O)NN(c1ccccc1)C1CCN(c2ccccc2)N1C(C)=O` (centres undefined), the EC50 was > 200 µM and the IC50 was 10.7 µM.
With `O[C@@H]1CCC[C@@H]2NC[C@@H](c3ccc4c(c3)OCO4)[C@H]12` the EC50 was > 200 µM and the IC50 was > 200 µM.
In the case of `NC(CCc1nc(-c2cccc([N+](=O)[O-])c2)cs1)C(=O)O` (centres undefined), the outcome is reported as “inactive”.
In the case of `CCOc1ccc(N=Cc2ccc3ccccc3n2)cc1`, the outcome is reported as “inactive”.
In the case of `Cc1n[nH]c(=O)n1-n1cccc1`, the EC50 is reported as > 200 µM and the IC50 is reported as > 200 µM.
For `O=S1(=O)CC2C3CC(Oc4ccccc4)C(C3)C2C1` (centres undefined), the EC50 was > 107 µM and the IC50 was > 107 µM.
For `CC1CN1C(=O)NCCCCCCNC(=O)N1CC1C` (centres undefined), the EC50 was > 200 µM and the IC50 was 4.79 µM.
For `COC1C(O)C(C)OC(OC2C(Oc3cccc4c(O)c5c(=O)oc6ccc(C)c7c(=O)oc(c34)c5c67)OC(C)C3O[C@H](c4ccccc4)OC32)C1O` (some centres undefined), the EC50 was > 7.24 µM and the IC50 was 0.0912 µM.
With `O=C1NC2(CCN(Cc3ccccc3)CC2)Oc2ccccc21` the EC50 was > 200 µM and the IC50 was > 200 µM.
`C[Si](C)(C)c1ccc(CC2(Cc3ccc([Si](C)(C)C)cc3)CCNC2)cc1` was tested, and the EC50 was > 5.01 µM and the IC50 was > 5.01 µM.
In the case of `Clc1ccc(-c2nc3ccc(C45CC6CC(CC(C6)C4)C5)cc3[nH]2)cc1`, the EC50 is reported as > 100 µM and the IC50 is reported as > 100 µM.
With `Cc1nc(Nc2ccccc2[N+](=O)[O-])sc1C(=O)CC(=O)C(=O)Nc1c(C(C)C)cccc1C(C)C` the EC50 was > 200 µM and the IC50 was > 200 µM.
For `O=C1C[C@@]23CCC4(CC2CCC[C@H]3O1)OCCO4` (some centres undefined), the outcome was “inactive”.
For `CCN(CC)CCN1C(=O)c2cccc3cc(OC)cc(c23)C1=O`, the EC50 was > 200 µM and the IC50 was 3.47 µM.
`Cc1cccc(/C=N/NC(=S)Nc2ccccc2)n1` was tested, and the EC50 was > 200 µM and the IC50 was 2 µM.
In the case of `O=C(Nc1ccc(C2=NCCN2)cc1)c1ccc(C(=O)Nc2ccc(C3=NCCN3)cc2)c(O)c1`, the EC50 is reported as 55 µM and the IC50 is reported as 91.2 µM.
For `N#C/C(=C/c1ccc([N+](=O)[O-])o1)c1ccccc1`, the EC50 was > 1050 µM and the IC50 was 61.7 µM.
In the case of `Cc1ccc(C(=O)O)c(/C=C2\Cc3cc(C)cc(C)c3C2=O)c1`, the outcome is reported as “inactive”.
In the case of `CN1CN(c2ccccc2)C2(CCN(CCCC(=O)c3cccs3)CC2)C1=O`, the EC50 is reported as > 200 µM and the IC50 is reported as 38.9 µM.
With `CN1N=C(c2ccncc2)OC1c1cccc(F)c1` (centres undefined) the EC50 was > 200 µM and the IC50 was 79.4 µM.
In the case of `Cn1c(=O)oc2cc(C(=O)CSC(=S)N3CCCCCC3)ccc21`, the EC50 is reported as > 200 µM and the IC50 is reported as 135 µM.
In the case of `CC1(C)OC(=O)C(c2ccsc2)C(=O)O1`, the EC50 is reported as > 1100 µM and the IC50 is reported as 589 µM.
With `O=C1NC(=O)C(C(=O)C(=O)Nc2ccc(Br)cc2)C(=O)N1` the EC50 was > 191 µM and the IC50 was > 191 µM.
For `C/C(=N/NC(=O)c1ccccc1Nc1ccccc1C(=O)N/N=C(\C)c1ccc(C)cc1)c1ccc(C)cc1`, the EC50 was > 20 µM and the IC50 was 8.91 µM.
In the case of `NS(=O)(=O)c1ccc(Nc2c3ccccc3nc3c(C(=O)NCCCN(CCO)CCO)cccc23)cc1`, the EC50 is reported as > 200 µM and the IC50 is reported as 9.33 µM.
`COc1cc2nncc(Cl)c2cc1OC` was tested, and the EC50 was > 95.5 µM and the IC50 was 79.4 µM.
In the case of `Cc1cc2c(C(C)C)c(O)c(O)c(C=Nc3cccc(O)c3)c2c(O)c1-c1c(C)cc2c(C(C)C)c(O)c(O)c(C=Nc3cccc(O)c3)c2c1O`, the outcome is reported as “inactive” and the IC50 is reported as 8.13 µM.
`COc1ccc(C2=C(OC(=O)N(C)C)c3cccn3-c3cc(Cl)ccc3S2)cc1` was tested, and the EC50 was > 100 µM and the IC50 was 87.1 µM.
`O=C(O)c1nc2ccc(Cl)cc2[nH]c1=O` was tested, and the outcome was “inactive”.
With `COC1/C=C/OC2(C)Oc3c(C)c(O)c4c(O)c(c(/C=N/N5C(C)CN(Cc6ccccc6O)CC5C)c(O)c4c3C2=O)NC(=O)/C(C)=C\C=C\C(C)C(O)C(C)C(O)C(C)C(OC(C)=O)C1C` (centres undefined) the EC50 was > 200 µM and the IC50 was 9.55 µM.
For `COC12C=CC(CC1)c1c2c(O)c2nc(C)c(C)nc2c1O` (centres undefined), the EC50 was > 200 µM and the IC50 was 3.16 µM.
For `COC(=O)CCSC(=O)Nc1ccccc1Cl`, the outcome was “inactive”.
In the case of `NC(=O)c1cccc(C2OC(COP(=O)(O)O)C(O)C2O)c1` (centres undefined), the EC50 is reported as > 661 µM and the IC50 is reported as 3.47 µM.
In the case of `Cn1c2ccccc2c2c3c(ccc21)C(=O)c1ccccc1C3=O`, the EC50 is reported as > 17 µM and the IC50 is reported as > 17 µM.
For `COc1ccc2c(c1OCC(=O)O)C(=O)C(CCC(=O)O)CC2` (centres undefined), the outcome was “inactive”.
In the case of `O=C1COc2ccc(F)cc2N1`, the EC50 is reported as > 380 µM and the IC50 is reported as > 380 µM.
In the case of `N#C/C(C(=O)Nc1ccccc1)=C(/N)N1CCCC1`, the EC50 is reported as > 200 µM and the IC50 is reported as 174 µM.
With `CCc1cccc(C)c1NC(=O)CCc1nnc(SC)o1` the EC50 was > 162 µM and the IC50 was > 162 µM.
With `CCc1nn(S(=O)(=O)c2ccc(C)cc2)c2c1CS(=O)(=O)CC2` the EC50 was > 200 µM and the IC50 was > 200 µM.
With `O=c1oc2ccccc2c(O)c1C(c1cc(OCc2ccccc2)cc(OCc2ccccc2)c1)c1c(O)c2ccccc2oc1=O` the EC50 was > 200 µM and the IC50 was 9.55 µM.
`O=C1OC(c2ccccc2)(c2ccccc2)c2sccc21` was tested, and the EC50 was > 24.5 µM and the IC50 was > 24.5 µM.
With `O=c1n(-c2ccccc2)c(=O)n2n1C1C3C4C3C2C2(F)C4C12` (centres undefined) the EC50 was > 200 µM and the IC50 was > 200 µM.
In the case of `O=c1[nH]nc2ccc(n[nH]c1=O)c1ccccc21`, the EC50 is reported as > 200 µM and the IC50 is reported as 7.41 µM.
In the case of `Cc1ccc(S(=O)(=O)c2c(N)c3nccn3c3nc4ccccc4nc23)cc1`, the EC50 is reported as > 25.7 µM and the IC50 is reported as > 25.7 µM.
For `CC1CCc2c(c(CC3CC(=O)NC(=O)C3)nn2-c2ccccc2)C1` (centres undefined), the EC50 was > 200 µM and the IC50 was > 200 µM.
`CC(=O)O[C@H]1C(=O)[C@@]2(C)[C@H]([C@H](OC(=O)c3ccccc3)[C@]3(O)C[C@H](OC(=O)[C@H](O)[C@@H](NC(=O)c4ccccc4)c4ccccc4)C(C)=C1C3(C)C)[C@]1(OC(C)=O)CO[C@@H]1C[C@@H]2O` was tested, and the EC50 was > 0.417 µM and the IC50 was 0.0135 µM.
`COc1ccc2c(c1)C/C(=C\c1ccc(O)c(OC)c1)C2=O` was tested, and the EC50 was > 200 µM and the IC50 was > 200 µM.
`Nn1nnc2ccccc21` was tested, and the EC50 was > 200 µM and the IC50 was > 200 µM.
With `N#C[C@H](c1nc2ccccc2s1)c1nc2ccccc2nc1Cl` the EC50 was > 100 µM and the IC50 was > 100 µM.
In the case of `CC(=O)/C(=C\c1ccccc1)C(=O)Nc1ccccc1`, the EC50 is reported as > 38 µM and the IC50 is reported as > 38 µM.
In the case of `C=CCOC1=C(OC(C)=O)C(C2COC(C)(C)O2)OC1=O` (centres undefined), the EC50 is reported as > 200 µM and the IC50 is reported as 16.2 µM.
In the case of `CCOc1ccccc1NC(=O)CCc1nc(=S)[nH][nH]1`, the EC50 is reported as > 851 µM and the IC50 is reported as 316 µM.
With `O=C1/C(=C/c2ccco2)N=C2Sc3c(nc[nH]c3=O)N12` the EC50 was > 200 µM and the IC50 was > 200 µM.
